Experimental data published in patent publication US20260062382A1, “CRYSTALLINE FORMS OF TROFINETIDE” (ACADIA Pharmaceuticals Inc., priority 2021, published 2026).
Where a SMILES comes first, the peptide text is derived from it. [ ]: non-standard residue; d: D form. αMeP = C[C@@]1(C(=O)O)CCCN1

Tests used:
Format in all cases: physicochemical
[1] = Stability under humidity conditions (two days exposure, XRPD / water content)
[2] = Dynamic vapor sorption-desorption (DVS) analysis
Description: DVS analysis was carried out TA Instruments Q5000 Dynamic Vapor Sorption analyzer. The instrument was calibrated with standard weights and a sodium bromide standard for humidity. Samples were analyzed at 25° C. with a maximum equilibration time of 60 minutes in 10% relative humidity (RH) steps from 5 to 95% RH (adsorption cycle) and from 95 to 5% RH (desorption cycle). Form A is non-hygroscopic.

[3] = Long-term (6 month) chemical stability, total impurities by HPLC; settings: for Total Impurities: 25 ± 2° C./60 ± 5% RH
Description: The long-term (6 month) chemical stability of Form A and amorphous trofinetide were tested under the same conditions: 25±2° C./60±5% relative humidity (RH). […] [table]

Solid form change under extreme dry conditions (XRPD) ([1]; open container exposed under 0% RH for two days)	Hygroscopicity ([2]; 25° C.)	Solid form after DVS by XRPD ([2]; after DVS)	Moisture uptake (adsorption cycle) ([2]; exposed from 5% RH to 95% RH)	Moisture loss (desorption cycle) ([2]; exposed from 95% RH to 5% RH)	Long-term chemical stability compared with amorphous trofinetide ([3]; 6 month, 25±2° C./60±5% RH)	Total Impurities ([3]; 1 month) [%]	Total Impurities ([3]; 3 months) [%]	Total Impurities ([3]; 6 months)	Total Impurities ([3]; Initial)	Structure (SMILES)	Stability under humidity conditions ([1]; large range of humidity conditions)
lost the water and became disordered	non-hygroscopic	remained as trofinetide Form A	little moisture uptake	little moisture loss	more stable than amorphous trofinetide	0.0	0.03	<PLOQ	<PLOQ	C[C@@]1(C(=O)N[C@@H](CCC(=O)O)C(=O)O)CCCN1C(=O)CN [Form A, (2S)-2-[[(2S)-1-(2-aminoacetyl)-2-methylpyrrolidine-2-carbonyl]amino]pentanedioic acid] (H-Gly-[αMeP]-Glu-OH)	stable under a large range of humidity conditions
–	–	–	–	–	–	0.3	0.8	1.0%	0.3%	C[C@@]1(C(=O)N[C@@H](CCC(=O)O)C(=O)O)CCCN1C(=O)CN [amorphous trofinetide (Batch 1), glycyl-L-2-methylprolyl-L-glutamic acid] (H-Gly-[αMeP]-Glu-OH)	–
–	–	–	–	–	–	–	0.6	0.9%	0.2%	C[C@@]1(C(=O)N[C@@H](CCC(=O)O)C(=O)O)CCCN1C(=O)CN [amorphous trofinetide (Batch 2), glycyl-L-2-methylprolyl-L-glutamic acid] (H-Gly-[αMeP]-Glu-OH)	–
–	–	–	–	–	–	0.2	0.6	0.8%	0.2%	C[C@@]1(C(=O)N[C@@H](CCC(=O)O)C(=O)O)CCCN1C(=O)CN [amorphous trofinetide (Batch 3), glycyl-L-2-methylprolyl-L-glutamic acid] (H-Gly-[αMeP]-Glu-OH)	–
